According to publication PMC7026080, “Phenotypic high-throughput screening platform identifies novel chemotypes for necroptosis inhibition” (Cell Death Discovery, 2020):

How the values were obtained:
[1] = Caco-2 cell-based permeability assay; assay type: in vitro ADME; details: human
Jurkat E6.1 cells = experiment: Apoptosis modulation, caspase-3/-7 activity in Jurkat E6.1 cells + CHX, 8 h; assay type: cell-based, human; details: Jurkat E6.1 + 0.5 μg/mL CHX
Procedure: Since apoptosis and necroptosis share key molecular players[20] and some RIPK3 necroptosis inhibitors may induce caspase-dependent cytotoxicity, hit compounds were tested for modulation of apoptosis activity in step three of the HTS workflow. Preliminary tests prior to screening encompassed the evaluation of several apoptosis inducers, such as FasL, doxorubicin, cycloheximide (CHX) and staurosporine, for their capability to modulate caspase-3/-7 activity in human Jurkat E6.1 T-cells, using Z-VAD-FMK and SN-2668/Nec-1 as negative and positive controls, respectively. […]
Adenylate kinase (AK) and lactate dehydrogenase (LDH) release from damaged cells were measured using the Toxilight BioAssay Kit (Lonza, Basel, Switzerland) and the Cytotoxicity Detection Kit (Roche Diagnostics GmbH, Mannheim, Germany), respectively. Adenosine triphosphate (ATP) metabolism was evaluated using CellTiter-Glo^TM Luminescent Cell Viability Assay (Promega, Madison, WI, USA). Apoptosis was determined by the measurement of caspase-3/-7 activity using the Caspase-Glo® 3/7 Assay (Promega) according to the manufacturer’s instructions. Cellular metabolic activity was measured using CellTiter 96® Aqueous Non-Radioactive Cell Proliferation (MTS) Assay (Promega). […]
Primary high-throughput screen. […] Eight hours after co-incubation of L929 cells with mTNF-α and test compounds, AK release was evaluated. […]

Row | SMILES | efflux ratio [1] | Papp A→B [1] [×10⁻⁶ cm/s] | Papp B→A [1] [×10⁻⁶ cm/s] | Modulation of caspase-3/-7 activity (apoptosis) (Jurkat E6.1 cells)
1 | CN1C(=O)C(Cc2c[nH]c3ccccc23)NC1=S (stereo not shown) [Nec-1, necrostatin-1] | 0.36 | 38 | 14 | failed to modulate caspase activity
2 | O=C(c1cnn(Cc2ccccc2)c1)N1CCOc2ccccc2C1 [SN-6109] | – | 31 | 16 | no apoptosis modulation
